Test results from PubChem BioAssay AID977609 (Broad Institute, 2014).
Calls of active or inactive are those of the source.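 How the source made its calls: active means a rise in signal, meaning less cAMP, whose fitted curve reaches 40% at or below the top valid tested dose; inconclusive means flat fit between 30% and 70%, or a poor fit; inactive means the rest.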

Test system: Drosophila melanogaster bursicon receptor LGR2 (rickets)
Test: LGR2 antagonists blocking bursicon cAMP, dose response, orthogonal assay for LGR2 antagonist project, cell-based, HEK293 transfected, TR-FRET cAMP, dry powder (AID 977609)
Conditions: bursicon-stimulated cAMP, Lance TR-FRET

Row | Compound | AC40
1 | C[C@H]1CCCCO[C@@H](CN(C)C(=O)Nc2ccc(F)cc2)[C@@H](C)CN([C@@H](C)CO)C(=O)c2cc(NC(=O)C3CCCCC3)ccc2O1 | 1380 nM
2 | C[C@H](CO)N1C[C@H](C)[C@H](CN(C)C(=O)Nc2ccccc2)OCCCC[C@H](C)Oc2ccc(NC(=O)Nc3ccc4c(c3)OCO4)cc2C1=O | 7540 nM
3 | C[C@H](CO)N1C[C@H](C)[C@H](CN(C)C(=O)Nc2ccccc2)OCCCC[C@H](C)Oc2ccc(NC(=O)C3CCCCC3)cc2C1=O | 736 nM
4 | C[C@H]1CCCCO[C@@H](CN(C)C(=O)Nc2cccc3ccccc23)[C@@H](C)CN([C@@H](C)CO)C(=O)c2cc(NC(=O)C3CCCCC3)ccc2O1 | 353 nM
5 | C[C@H](CO)N1C[C@H](C)[C@H](CN(C)C(=O)Nc2ccc3c(c2)OCO3)OCCCC[C@H](C)Oc2ccc(NC(=O)C3CCCCC3)cc2C1=O | 837 nM
6 | C[C@H](CO)N1C[C@H](C)[C@H](CN(C)C(=O)Nc2ccccc2)OCCCC[C@H](C)Oc2ccc(NC(=O)NC3CCCCC3)cc2C1=O | 3220 nM
7 | C[C@H](CO)N1C[C@H](C)[C@H](CN(C)C(=O)Nc2ccc(F)cc2)OCCCC[C@H](C)Oc2ccc(NC(=O)C3CCC3)cc2C1=O | 4980 nM
8 | C[C@H]1CCCCO[C@@H](CN(C)C(=O)Nc2ccc3c(c2)OCO3)[C@@H](C)CN([C@@H](C)CO)C(=O)c2cc(NC(=O)NC3CCCCC3)ccc2O1 | 3790 nM
9 | C[C@H](CO)N1C[C@H](C)[C@H](CN(C)C(=O)Nc2cccc(F)c2)OCCCC[C@H](C)Oc2ccc(NC(=O)C3CCCCC3)cc2C1=O | 858 nM
10 | C[C@H](CO)N1C[C@H](C)[C@H](CN(C)C(=O)Nc2ccc(F)cc2)OCCCC[C@H](C)Oc2ccc(NC(=O)C3CC3)cc2C1=O | 49600 nM
11 | C[C@@H]1CN([C@H](C)CO)C(=O)c2cc(NC(=O)C3CCCCC3)ccc2O[C@@H](C)CCCCO[C@H]1CN(C)C(=O)Nc1cccc2ccccc12 | > 50000 nM (inactive)
12 | C[C@H](CO)N1C[C@H](C)[C@H](CN(C)C(=O)Nc2ccc(F)cc2)OCCCC[C@H](C)Oc2ccc(NC(=O)C3CCCCC3)cc2C1=O | 501 nM
13 | C[C@@H]1CCCCO[C@@H](CN(C)C(=O)Nc2cccc3ccccc23)[C@H](C)CN([C@@H](C)CO)C(=O)c2cc(NC(=O)C3CCCCC3)ccc2O1 | > 50000 nM (inactive)
14 | C[C@H](CO)N1C[C@H](C)[C@H](CN(C)C(=O)Nc2ccc(F)cc2)OCCCC[C@H](C)Oc2ccc(NC(=O)Nc3ccccc3)cc2C1=O | 2890 nM
15 | COc1ccc(NC(=O)N(C)C[C@@H]2OCCCC[C@H](C)Oc3ccc(NC(=O)C4CCCCC4)cc3C(=O)N([C@H](C)CO)C[C@@H]2C)cc1 | 1480 nM
16 | Cc1ccc(NC(=O)N(C)C[C@@H]2OCCCC[C@H](C)Oc3ccc(NC(=O)C4CCCCC4)cc3C(=O)N([C@H](C)CO)C[C@@H]2C)cc1 | 1050 nM
17 | C[C@H](CO)N1C[C@H](C)[C@H](CN(C)C(=O)Nc2ccccc2)OCCCC[C@H](C)Oc2ccc(NC(=O)Nc3ccccc3)cc2C1=O | 5860 nM
18 | C[C@@H]1CCCCO[C@H](CN(C)C(=O)Nc2cccc3ccccc23)[C@@H](C)CN([C@H](C)CO)C(=O)c2cc(NC(=O)C3CCCCC3)ccc2O1 | > 50000 nM (inactive)
19 | C[C@H]1CCCCO[C@H](CN(C)C(=O)Nc2cccc3ccccc23)[C@@H](C)CN([C@@H](C)CO)C(=O)c2cc(NC(=O)C3CCCCC3)ccc2O1 | > 50000 nM (inactive)
20 | COc1ccc(NC(=O)N(C)C[C@@H]2OCCCC[C@H](C)Oc3ccc(NC(=O)NC4CCCCC4)cc3C(=O)N([C@H](C)CO)C[C@@H]2C)cc1 | 2040 nM
21 | C[C@@H]1CN([C@H](C)CO)C(=O)c2cc(NC(=O)C3CCCCC3)ccc2O[C@@H](C)CCCCO[C@@H]1CN(C)C(=O)Nc1cccc2ccccc12 | > 50000 nM (inactive)
22 | C[C@H]1CCCCO[C@@H](CN(C)C(=O)Nc2ccc(C(F)(F)F)cc2)[C@@H](C)CN([C@@H](C)CO)C(=O)c2cc(NC(=O)CCC(F)(F)F)ccc2O1 | 2160 nM
23 | C[C@H](CO)N1C[C@H](C)[C@H](CN(C)C(=O)Nc2ccc3ccccc3c2)OCCCC[C@H](C)Oc2ccc(NC(=O)C3CCCCC3)cc2C1=O | 219 nM
24 | C[C@@H]1CCCCO[C@H](CN(C)C(=O)Nc2cccc3ccccc23)[C@H](C)CN([C@H](C)CO)C(=O)c2cc(NC(=O)C3CCCCC3)ccc2O1 | > 50000 nM (inactive)
25 | C[C@@H]1CCCCO[C@@H](CN(C)C(=O)Nc2cccc3ccccc23)[C@@H](C)CN([C@@H](C)CO)C(=O)c2cc(NC(=O)C3CCCCC3)ccc2O1 | > 50000 nM (inactive)
26 | C[C@H]1CCCCO[C@@H](CN(C)S(=O)(=O)c2ccc(Cl)cc2)[C@@H](C)CN([C@@H](C)CO)C(=O)c2cc(NC(=O)NC3CCCCC3)ccc2O1 | > 50000 nM (inactive)
27 | C[C@H](CO)N1C[C@H](C)[C@H](CN(C)C(=O)Nc2ccccc2F)OCCCC[C@H](C)Oc2ccc(NC(=O)C3CCCCC3)cc2C1=O | 515 nM
28 | C[C@@H]1CCCCO[C@H](CN(C)C(=O)Nc2cccc3ccccc23)[C@@H](C)CN([C@@H](C)CO)C(=O)c2cc(NC(=O)C3CCCCC3)ccc2O1 | > 50000 nM (inactive)
29 | C[C@H](CO)N1C[C@H](C)[C@H](CN(C)C(=O)Nc2ccc(F)cc2)OCCCC[C@H](C)Oc2ccc(NC(=O)Nc3ccc(F)cc3)cc2C1=O | 4690 nM

Results, then the compound that gave them:

Row | AC40 | Compound
30 | 2490 nM | C[C@H](CO)N1C[C@H](C)[C@H](CN(C)C(=O)Nc2cccc3ccccc23)OCCCC[C@H](C)Oc2ccc(NC(=O)c3ccccc3)cc2C1=O
31 | 853 nM | C[C@H](CO)N1C[C@H](C)[C@H](CN(C)C(=O)Nc2ccc(Cl)cc2)OCCCC[C@H](C)Oc2ccc(NC(=O)C3CCCCC3)cc2C1=O
32 | 25000 nM | C[C@H](CO)N1C[C@H](C)[C@H](CN(C)C(=O)Nc2ccc(F)cc2)OCCCC[C@H](C)Oc2ccc(NC(=O)C3CCOCC3)cc2C1=O
33 | 5490 nM | C[C@H](CO)N1C[C@H](C)[C@H](CN(C)C(=O)Nc2ccc3c(c2)OCO3)OCCCC[C@H](C)Oc2ccc(NC(=O)NC3CCCCC3)cc2C1=O
34 | 129 nM | C[C@H](CO)N1C[C@H](C)[C@H](CN(C)C(=O)Nc2cccc3ccccc23)OCCCC[C@H](C)Oc2ccc(NC(=O)C3CCCCC3)cc2C1=O
35 | 1750 nM | C[C@H](CO)N1C[C@H](C)[C@H](CN(C)C(=O)Nc2ccc(F)cc2)OCCCC[C@H](C)Oc2ccc(NC(=O)C3CCCC3)cc2C1=O
36 | 1650 nM | C[C@H](CO)N1C[C@H](C)[C@H](CN(C)C(=O)Nc2cccc3ccccc23)OCCCC[C@H](C)Oc2ccc(NC(=O)NC3CCCCC3)cc2C1=O
37 | 2710 nM | C[C@H](CO)N1C[C@H](C)[C@H](CN(C)C(=O)Nc2ccc(C(F)(F)F)cc2)OCCCC[C@H](C)Oc2ccc(NC(=O)NC3CCCCC3)cc2C1=O
38 | > 50000 nM (inactive) | C[C@H](CO)N1C[C@H](C)[C@@H](CN(C)C(=O)Nc2cccc3ccccc23)OCCCC[C@H](C)Oc2ccc(NC(=O)C3CCCCC3)cc2C1=O
39 | 949 nM | C[C@H](CO)N1C[C@H](C)[C@H](CN(C)C(=O)Nc2ccc(C(F)(F)F)cc2)OCCCC[C@H](C)Oc2ccc(NC(=O)CCC(F)(F)F)cc2C1=O
40 | 3580 nM | C[C@H]1CCCCO[C@@H](CN(C)C(=O)Nc2ccccc2)[C@@H](C)CN([C@@H](C)CO)C(=O)c2cc(NC(=O)NC3CCCCC3)ccc2O1
41 | > 50000 nM (inactive) | COc1ccc(S(=O)(=O)N(C)C[C@@H]2OCCCC[C@H](C)Oc3ccc(NS(=O)(=O)c4ccc(F)cc4)cc3C(=O)N([C@@H](C)CO)C[C@@H]2C)cc1
42 | 3910 nM | C[C@H](CO)N1C[C@H](C)[C@H](CN(C)C(=O)Nc2ccc(F)cc2)OCCCC[C@H](C)Oc2ccc(NC(=O)NC3CCCCC3)cc2C1=O
43 | > 50000 nM (inactive) | C[C@@H]1CN([C@@H](C)CO)C(=O)c2cc(NC(=O)C3CCCCC3)ccc2O[C@@H](C)CCCCO[C@H]1CN(C)C(=O)Nc1cccc2ccccc12
44 | > 50000 nM (inactive) | CC(=O)Nc1ccc2c(c1)C(=O)N([C@H](C)CO)C[C@H](C)[C@H](CN(C)C(=O)Nc1ccc(F)cc1)OCCCC[C@H](C)O2
45 | 1530 nM | C[C@H](CO)N1C[C@H](C)[C@H](CN(C)C(=O)Nc2ccccc2)OCCCC[C@H](C)Oc2ccc(NC(=O)CCC(F)(F)F)cc2C1=O
46 | 248 nM | C[C@H](CO)N1C[C@H](C)[C@H](CN(C)C(=O)Nc2ccc(F)cc2)OCCCC[C@H](C)Oc2ccc(NC(=O)C3CCCCCC3)cc2C1=O
47 | 1950 nM | C[C@H](CO)N1C[C@H](C)[C@H](CN(C)C(=O)Nc2cccc3ccccc23)OCCCC[C@H](C)Oc2ccc(NC(=O)CCC(F)(F)F)cc2C1=O

Same assay, conditions: bursicon-stimulated cAMP, Lance TR-FRET, at 50 µM (top of the series)

Row | Compound | inhibition of cAMP
48 | C[C@@H]1CCCCO[C@H](CN(C)C(=O)Nc2cccc3ccccc23)[C@H](C)CN([C@@H](C)CO)C(=O)c2cc(NC(=O)C3CCCCC3)ccc2O1 | 16% (inactive)
49 | COc1ccc(S(=O)(=O)N(C)C[C@@H]2OCCCC[C@H](C)Oc3ccc(NS(=O)(=O)c4ccc(Cl)cc4)cc3C(=O)N([C@@H](C)CO)C[C@@H]2C)cc1 | 6.28% (inactive)
50 | C[C@@H]1CN([C@@H](C)CO)C(=O)c2cc(NC(=O)C3CCCCC3)ccc2O[C@@H](C)CCCCO[C@@H]1CN(C)C(=O)Nc1cccc2ccccc12 | 10.1% (inactive)

Further lines, results first:

Row | inhibition of cAMP | Compound
51 | 9.18% (inactive) | CC(C)(C)c1ccc(-c2nc(-c3ccncc3)no2)cc1
52 | -2.89% (inactive) | C[C@@H]1CCCCO[C@@H](CN(C)C(=O)Nc2cccc3ccccc23)[C@@H](C)CN([C@H](C)CO)C(=O)c2cc(NC(=O)C3CCCCC3)ccc2O1
53 | -5.85% (inactive) | C[C@@H]1CCCCO[C@@H](CN(C)C(=O)Nc2cccc3ccccc23)[C@H](C)CN([C@H](C)CO)C(=O)c2cc(NC(=O)C3CCCCC3)ccc2O1
